Literature values, collected in PMC6311893, “Computational prediction of plasma protein binding of cyclic peptides from small molecule experimental data using sparse modeling techniques” (BMC Bioinformatics, 2018).
Like-named read-outs stand apart in the source and are kept apart here.

Test system: plasma protein
Conditions: cited from earlier work
[1] = fraction bound to plasma protein, small molecule dataset, sheet 1-SM, ref Ingle et al.
[2] = fraction bound to plasma protein, small molecule dataset, sheet 1-SM, Set Dtr, ref Ingle et al.
[3] = fraction bound to plasma protein, small molecule dataset, sheet 1-SM (Set Dte = test, Dtr = training), ref Ingle et al.

In the case of `CCN1CCC[C@H]1CNC(=O)c1c(OC)ccc(Br)c1OC` [Remoxipride], the “PPB (fb)” value [1] is listed as 0.79.
In the case of `O=C1Nc2ccc(Cl)cc2C(c2ccccc2Cl)=NC1O` (centres unmarked) [Lorazepam], the “PPB (fb)” value (plasma) is listed as 0.91.
For `Nc1nc(F)nc2c1ncn2[C@@H]1O[C@H](CO)[C@@H](O)[C@@H]1O` [Fludarabine], the “PPB (fb)” value [2] is listed as 0.12.
For `O=C1OC(c2ccc(O)c(S(=O)(=O)O)c2)(c2ccc(O)c(S(=O)(=O)O)c2)c2c(Br)c(Br)c(Br)c(Br)c21` [sulfobromophthalein], the “PPB (fb)” value (plasma) is listed as 0.99.
In the case of `CN(CC1(C)CCCO1)S(=O)(=O)c1ccc(Cl)c(S(N)(=O)=O)c1` (centres unmarked) [mefruside], the “PPB (fb)” value [1] is given as 0.65.
In the case of `N[C@@H](CC(=O)N1CCn2c(nnc2C(F)(F)F)C1)Cc1cc(F)c(F)cc1F` [Sitagliptin], the “PPB (fb)” value [1] is given as 0.38.
For `O=C([O-])[O-].[Li+].[Li+]` [Lithium Carbonate], the “PPB (fb)” value (plasma) is listed as 0.
For `CN1CC(=O)N2[C@H](c3ccc4c(c3)OCO4)c3[nH]c4ccccc4c3C[C@@H]2C1=O` [tadalafil], the “PPB (fb)” value [1] is listed as 0.94.
In the case of `Cc1nnc2n1-c1ccc(Cl)cc1C(c1ccccc1)=NC2` [Alprazolam], the “PPB (fb)” value (plasma) is listed as 0.72.
For `CC[C@@]1(O)C(=O)OCc2c1cc1n(c2=O)Cc2cc3ccccc3nc2-1` [Camptothecin], the “PPB (fb)” value [3] is listed as 0.98.
For `O=C(c1ccc(F)cc1)C1CCN(CCn2c(=O)[nH]c3ccccc3c2=O)CC1` [Ketanserin], the “PPB (fb)” value [2] is given as 0.95.
For `CC(/C=C1\SC(=S)N(CC(=O)O)C1=O)=C\c1ccccc1` [Epalrestat], the “PPB (fb)” value [1] is listed as 0.9.
For `CC(C(=O)O)c1ccc(-c2ccccc2)c(F)c1` (centres unmarked) [flurbiprofen], the “PPB (fb)” value [1] is given as 0.99.
For `CCCC(N)C(=O)NC1C(=O)N2C1SC(C)(C)C2C(=O)O` (centres unmarked) [penicillin12], the “PPB (fb)” value [1] is given as 0.33.
In the case of Gabapentin, the “PPB (fb)” value (plasma) is given as 0.02.
For `NCc1ccccc1CC(=O)N[C@@H]1C(=O)N2C(C(=O)O)=C(CSc3nnnn3CC(=O)O)CS[C@H]12` [Ceforanide], the “PPB (fb)” value [2] is listed as 0.81.
For idoxuridine, the “PPB (fb)” value (plasma) is listed as 0.
In the case of `C[C@H](N[C@@H](CCc1ccccc1)C(=O)O)C(=O)N1CCC[C@H]1C(=O)O` [Enalaprilat], the “PPB (fb)” value [3] is given as 0.46.
For flurazepam, the “PPB (fb)” value (plasma) is listed as 0.97.
For `CCCCc1nc(Cl)c(CO)n1Cc1ccc(-c2ccccc2-c2nn[nH]n2)cc1` [Losartan], the “PPB (fb)” value [2] is listed as 0.99.
For `OCCN1CCN(CCC=C2c3ccccc3Sc3ccc(C(F)(F)F)cc32)CC1` [flupenthixol], the “PPB (fb)” value [1] is listed as 0.95.
For `Cc1cn([C@H]2C[C@H](N=[N+]=[N-])[C@@H](CO)O2)c(=O)[nH]c1=O` [Zidovudine], the “PPB (fb)” value [3] is given as 0.28.
For `O=C(O)c1cn(-c2cccc(F)c2)c2cc(N3CCNCC3)c(F)cc2c1=O` [2b(m-F)], the “PPB (fb)” value [3] is listed as 0.51.
For `NCC[C@H](O)C(=O)N[C@@H]1C[C@H](N)[C@@H](O[C@H]2O[C@H](CN)CC[C@H]2N)[C@H](O)[C@H]1O[C@H]1O[C@H](CO)[C@@H](O)[C@H](N)[C@H]1O` [arbekacin], the “PPB (fb)” value [3] is listed as 0.08.
In the case of `COC(=O)N[C@H](C(=O)N[C@@H](Cc1ccccc1)[C@@H](O)CN(Cc1ccc(-c2ccccn2)cc1)NC(=O)[C@@H](NC(=O)OC)C(C)(C)C)C(C)(C)C` [Atazanavir], the “PPB (fb)” value [3] is given as 0.86.
For `COC1=CC(=O)C[C@@H](C)[C@]12Oc1c(Cl)c(OC)cc(OC)c1C2=O` [griseofulvin], the “PPB (fb)” value [1] is given as 0.8.
In the case of `CCOC(=O)/C=C(C)/C=C/C=C(C)/C=C/c1c(C)cc(OC)c(C)c1C` [etretinate], the “PPB (fb)” value [3] is given as 0.99.
In the case of `C=CC[C@@H]1/C=C(\C)C[C@H](C)C[C@H](OC)[C@H]2O[C@@](O)(C(=O)C(=O)N3CCCC[C@H]3C(=O)O[C@H](/C(C)=C/[C@@H]3CC[C@@H](O)[C@H](OC)C3)[C@H](C)[C@@H](O)CC1=O)[C@H](C)C[C@@H]2OC` [Tacrolimus], the “PPB (fb)” value [1] is given as 0.99.
In the case of `C[C@@H]1CN([C@H]2CC[C@](C#N)(c3ccc(F)cc3)CC2)CC[C@]1(C(=O)O)c1ccccc1` [levocabastine], the “PPB (fb)” value [3] is given as 0.55.
For `O=C1CN=C(c2ccccc2Cl)c2cc([N+](=O)[O-])ccc2N1` [Clonazepam], the “PPB (fb)” value (plasma) is listed as 0.85.
For `C#C[C@]1(O)CC[C@H]2[C@@H]3CCC4=CC(=O)CC[C@@H]4[C@H]3CC[C@@]21CC` [Levonorgestrel], the “PPB (fb)” value [2] is given as 0.975.
In the case of `CC1(C)S[C@@H]2[C@H](NC(=O)[C@H](N)c3ccc(O)cc3)C(=O)N2[C@H]1C(=O)O` [Amoxicillin], the “PPB (fb)” value [2] is given as 0.17.
For `CCOc1cnc2ccccc2c1C(=O)NC1C(=O)N2C1SC(C)(C)C2C(=O)O` (centres unmarked) [penicillin78], the “PPB (fb)” value [1] is listed as 0.7.
In the case of `C=CCOc1ccc(CC(=O)O)cc1Cl` [alclofenac], the “PPB (fb)” value [3] is given as 0.99.
In the case of `COC1C(C)OC(OC2C=C3CCC4C(CCC5(C)C(c6ccc(=O)oc6)CCC45O)C3(C)CC2)C(O)C1O` (centres unmarked) [meproscillarin], the “PPB (fb)” value (plasma) is listed as 0.96.
For `CO` [methanol], the “PPB (fb)” value (plasma) is given as 0.
In the case of `COc1cc(C(=O)NS(=O)(=O)c2ccccc2C)ccc1Cc1cn(C)c2ccc(NC(=O)OC3CCCC3)cc12` [zafirlukast], the “PPB (fb)” value [2] is listed as 0.99.
In the case of `CCOC(=O)OC(C)OC(=O)[C@@H]1N2C(=O)[C@@H](NC(=O)[C@H](N)c3ccccc3)[C@H]2SC1(C)C` (some centres unmarked) [bacampicillin], the “PPB (fb)” value [3] is listed as 0.2.
In the case of `C[C@@H](O)[C@H]1C(=O)N2C(C(=O)O)=C(S[C@@H]3CN[C@H](C(=O)N(C)C)C3)[C@H](C)[C@H]12` [Meropenem], the “PPB (fb)” value [2] is given as 0.08.
For `O=P(O)(O)OC(Cn1cncn1)(Cn1cncn1)c1ccc(F)cc1F` [Fosfluconazole], the “PPB (fb)” value [3] is given as 0.96.
For `CCC1(C)OC(=O)N(C)C1=O` (centres unmarked) [paramethadione], the “PPB (fb)” value [1] is listed as 0.
In the case of `N[C@@H](C(=O)N[C@@H]1C(=O)N2C(C(=O)O)=C(Cl)CS[C@H]12)c1ccccc1` [cefaclor], the “PPB (fb)” value [3] is listed as 0.25.
For `CCC1(CC)C(=O)NCC(C)C1=O` (centres unmarked) [methyprylon], the “PPB (fb)” value (plasma) is listed as 0.6.
For `COc1c(N2CCNC(C)C2)c(F)cc2c(=O)c(C(=O)O)cn(C3CC3)c12` (centres unmarked) [Gatifloxacin], the “PPB (fb)” value [2] is given as 0.2.
For `CCOC(=O)[C@@H]1C2CCC(C[C@@H]1OC(=O)c1ccccc1)N2C` (some centres unmarked) [Cocaethylene], the “PPB (fb)” value (plasma) is listed as 0.36.
In the case of `CN(C)CCCN1c2ccccc2Sc2ccccc21` [Promazine], the “PPB (fb)” value [2] is given as 0.89.
For `O=C(O)P(=O)(O)O` [Foscarnet], the “PPB (fb)” value [2] is listed as 0.15.
For `CCN1CCN(c2cc3c(cc2F)c(=O)c(C(=O)O)cn3-c2ccc(OC)cc2)CC1` [5cb (p-OCH3__N-C2H5)], the “PPB (fb)” value [3] is given as 0.51.
For `O=C1CCC(N2C(=O)c3ccccc3C2=O)C(=O)N1` (centres unmarked) [Thalidomide], the “PPB (fb)” value [1] is given as 0.57.
In the case of `CCCCCN(CCCOC)C(=O)[C@@H](CCC(=O)O)NC(=O)c1ccc(Cl)c(Cl)c1` [Dexloxiglumide], the “PPB (fb)” value [2] is given as 0.98.
For `O=c1[nH]cc(F)c(=O)[nH]1` [Fluorouracil], the “PPB (fb)” value [2] is given as 0.23.
For `OC(O)C(Cl)(Cl)Cl` [chloral-hydrate], the “PPB (fb)” value (plasma) is listed as 0.35.
For `Cc1c(O)cccc1C(=O)N[C@@H](CSc1ccccc1)[C@H](O)CN1C[C@H]2CCCC[C@H]2C[C@H]1C(=O)NC(C)(C)C` [nelfinavir], the “PPB (fb)” value [1] is listed as 0.99.
